{"source": "paper PMC7993727", "about": "“Discovery of a novel AR/HDAC6 dual inhibitor for prostate cancer treatment” (Aging (Albany NY), 2021)", "key": {"TMPRSS2": {"test_system": "TMPRSS2", "assay": "TMPRSS2 mRNA (qRT-PCR) and protein (Western blot) expression in VCaP cells", "assay_type": "cell-based", "settings": "10 nM DHT, 24 hours", "experimental": "(§1) RNA expression level was analyzed by qRT-PCR and protein expression level was analyzed by Western blot. […] (I) Representative immunofluorescence microscopic images of VCaP cells for checking the subcellular localization of AR.\n(§2) The RNA of VCaP cells was extracted using a Simply P Total RNA Extraction kit (Bioer technology) and cDNA was synthesized using a SMARTer PCR cDNA Synthesis Kit (Clontech). PSA and β-actin primers were synthesized by Sangon Biotech according to previous literature. Real-time PCR was performed using the PowerUp SYBR™ Green kit (ThermoFisher). The PCR program was run on a LightCycler 480II (Roche) and set as follows: 2 minutes at 95° C followed by 40 cycles of 30 seconds at 95° C, 15 seconds at 60° C and 30 seconds at 72° C. Data were quantified using the 2-ΔΔCt method based on the Ct values of PSA and β-actin from two parallel experiments performed in triplicate.\n(§3) The whole-cell extracts were prepared in lysis buffer with a protease inhibitor cocktail (Bimake), while the xenograft tissue extracts were prepared in 0.5% Nonidet P 40 Substitute solution (Biosharp) with cocktail protease inhibitor (Bimake). Each sample containing 30 μg of total protein was loaded onto 10% SDS-PAGE and electrotransferred onto polyvinylidene fluoride membranes. […]"}, "PSA": {"test_system": "PSA", "assay": "PSA mRNA (qRT-PCR) and protein (Western blot) expression in VCaP cells", "assay_type": "cell-based", "settings": "10 nM DHT, 24 hours", "experimental": "as §1, §2, §3"}, "DU145 cells": {"test_system": "DU145 cells", "assay": "cell proliferation assay", "assay_type": "cell-based", "settings": "Homo sapiens, DU-145, 72 h, read-out: IC50 values proliferation DU145"}, "[1]": {"assay": "pharmacokinetics of Zeta55 in rats", "assay_type": "in vivo", "settings": "for AUC(0-t): 0-72h", "experimental": "To evaluate the pharmacokinetic properties of Zeta55 in vivo, rats were orally (20 mg/kg) or intravenously (5 mg/kg) administrated with Zeta55, and the plasma concentration of Zeta55 was measured using LC-MS/MS.\nSD male rats weighing about 250 g were used for the pharmacokinetics study of Zeta55. After a fast of 12 hours, four rats were oral administrated with 20 mg/kg Zeta55 and one rat was tail vein injected with 5 mg/kg Zeta55. Plasma samples of 0.2 ml were taken at 0, 0.083, 0.25, 0.5, 1, 2, 3, 5, 8, 10, 24, 48, and 72 hours after administration and then measured by LC-MS/MS. AUC0-t, AUC0-∞, t1/2, Tmax, Vz/F, and Cl/F were analyzed by Phoenix winnonlin 8.0."}, "HDAC3": {"target": "T1, HDAC3 (Homo sapiens, UniProt O15379)", "T1 construct": "purchased BPS Bioscience", "T1 sequence (O15379 whole entry)": "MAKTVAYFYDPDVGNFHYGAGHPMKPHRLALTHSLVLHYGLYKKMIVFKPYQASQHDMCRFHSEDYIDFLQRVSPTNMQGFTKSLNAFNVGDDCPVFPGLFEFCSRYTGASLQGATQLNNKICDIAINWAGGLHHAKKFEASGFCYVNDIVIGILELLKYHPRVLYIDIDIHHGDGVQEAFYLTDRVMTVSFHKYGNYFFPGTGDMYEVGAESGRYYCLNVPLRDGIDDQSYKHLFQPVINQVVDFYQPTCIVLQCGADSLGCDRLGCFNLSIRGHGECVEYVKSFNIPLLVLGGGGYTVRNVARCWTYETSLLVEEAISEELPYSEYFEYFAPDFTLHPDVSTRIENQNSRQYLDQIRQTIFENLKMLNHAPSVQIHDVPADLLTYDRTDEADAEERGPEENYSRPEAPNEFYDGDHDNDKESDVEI", "T1 sequence (Q9Y618 395-489 partner limits assumed)": "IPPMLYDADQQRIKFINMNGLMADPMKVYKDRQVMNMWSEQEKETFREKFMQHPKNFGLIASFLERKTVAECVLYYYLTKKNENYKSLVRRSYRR", "assay": "fluorescent-based HDAC assay", "assay_type": "biochemical", "experimental": "(§4) Commercial fluorescent assay kits were used to measure the activities of HDAC (BPS Bioscience). Briefly, the tested compounds were diluted in DMSO into a 96-well plate, and then assay buffer, HDAC, and substrate were added. The plate was incubated at 37° C for 30 minutes for enzymatic reactions, and the developer was added. After 10 minutes of incubation, the generated fluorescence was measured at an excitation of 380 nm and an emission of 460 nm."}, "HDAC4": {"target": "T2, HDAC4 (Homo sapiens, UniProt P56524)", "T2 construct": "purchased BPS Bioscience", "T2 sequence (P56524 whole entry)": "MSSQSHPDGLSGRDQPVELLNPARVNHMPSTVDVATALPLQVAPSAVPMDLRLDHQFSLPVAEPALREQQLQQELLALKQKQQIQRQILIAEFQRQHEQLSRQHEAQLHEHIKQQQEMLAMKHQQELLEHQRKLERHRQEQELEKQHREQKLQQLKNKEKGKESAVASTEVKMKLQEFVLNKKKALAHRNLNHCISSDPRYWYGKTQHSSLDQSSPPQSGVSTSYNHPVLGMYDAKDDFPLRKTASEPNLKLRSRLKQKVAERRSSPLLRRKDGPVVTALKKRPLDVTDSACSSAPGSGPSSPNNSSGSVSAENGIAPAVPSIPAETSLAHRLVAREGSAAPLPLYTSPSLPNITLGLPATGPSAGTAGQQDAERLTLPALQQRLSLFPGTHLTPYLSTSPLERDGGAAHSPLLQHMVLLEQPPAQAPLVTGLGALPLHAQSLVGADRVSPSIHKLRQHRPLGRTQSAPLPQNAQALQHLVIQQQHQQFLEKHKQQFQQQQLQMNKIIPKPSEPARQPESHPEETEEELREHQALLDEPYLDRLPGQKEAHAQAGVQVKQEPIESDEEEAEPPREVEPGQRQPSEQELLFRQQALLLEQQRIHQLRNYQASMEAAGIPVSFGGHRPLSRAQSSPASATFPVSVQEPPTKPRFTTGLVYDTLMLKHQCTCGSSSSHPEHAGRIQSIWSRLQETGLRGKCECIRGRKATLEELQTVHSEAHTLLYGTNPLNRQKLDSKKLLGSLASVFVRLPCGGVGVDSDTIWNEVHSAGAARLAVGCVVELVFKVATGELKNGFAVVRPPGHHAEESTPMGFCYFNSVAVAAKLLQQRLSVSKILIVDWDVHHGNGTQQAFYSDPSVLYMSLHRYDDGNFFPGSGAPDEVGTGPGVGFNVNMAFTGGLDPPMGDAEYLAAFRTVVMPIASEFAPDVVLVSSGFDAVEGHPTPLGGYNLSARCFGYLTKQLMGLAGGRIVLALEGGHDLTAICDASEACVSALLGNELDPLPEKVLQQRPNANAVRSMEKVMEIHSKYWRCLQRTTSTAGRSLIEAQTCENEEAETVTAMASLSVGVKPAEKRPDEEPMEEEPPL", "assay": "fluorescent-based HDAC assay", "assay_type": "biochemical", "experimental": "as §4"}, "HDAC1": {"target": "T3, HDAC1 (Homo sapiens, UniProt Q13547)", "T3 construct": "purchased BPS Bioscience", "T3 sequence (Q13547 whole entry)": "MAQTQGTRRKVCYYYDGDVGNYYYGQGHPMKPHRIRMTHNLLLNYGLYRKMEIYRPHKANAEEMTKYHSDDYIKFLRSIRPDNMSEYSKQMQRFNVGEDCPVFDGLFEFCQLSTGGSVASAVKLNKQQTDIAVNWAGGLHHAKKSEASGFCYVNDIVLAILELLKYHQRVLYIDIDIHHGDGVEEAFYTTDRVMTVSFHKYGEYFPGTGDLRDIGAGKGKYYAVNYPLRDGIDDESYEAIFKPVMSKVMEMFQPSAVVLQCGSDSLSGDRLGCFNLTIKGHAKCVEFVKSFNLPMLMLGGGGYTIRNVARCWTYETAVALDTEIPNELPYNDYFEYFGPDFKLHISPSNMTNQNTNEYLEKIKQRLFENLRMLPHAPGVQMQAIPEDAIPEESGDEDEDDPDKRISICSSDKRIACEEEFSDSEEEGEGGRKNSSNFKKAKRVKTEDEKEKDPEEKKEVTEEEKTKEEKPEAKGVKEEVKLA", "assay": "fluorescent-based HDAC assay", "assay_type": "biochemical", "experimental": "as §4"}, "HSP90, HSP60, HSP70": {"test_system": "HSP90, HSP60, HSP70", "assay": "expression levels of heat shock proteins", "assay_type": "cell-based"}, "[2]": {"settings": "IV, tail vein injection 5 mg/kg, n=1, rats"}, "[3]": {"settings": "male, SD, rat, plasma, IV, tail vein injection 5 mg/kg, n=1, rats"}, "[4]": {"settings": "male, SD, rat, plasma, PO, oral gavage 20 mg/kg, n=4, rats"}}, "note": "Where “and” joins values, the source holds several entries; their conditions need not be identical. Identical values can stand only once."}
{"smiles": "N#Cc1ccc(N2C(=O)C3(CCC3)N(c3ccc(C(=O)NO)c(F)c3)C2=S)cc1C(F)(F)F", "note": "[Zeta55]", "values": [{"measurement": "DHT-induced endogenous mRNA and protein expression of TMPRSS2", "setting": "TMPRSS2", "result": "significantly suppressed"}, {"measurement": "DHT-induced endogenous mRNA and protein expression of PSA", "setting": "PSA", "result": "significantly suppressed"}, {"measurement": "IC50", "setting": "DU145 cells", "result": 45.7, "unit": "µM"}, {"measurement": "Cl/F", "setting": "[1]; [2]", "result": 114.6149, "unit": "mL/min/kg"}, {"measurement": "Vz/F", "setting": "[1]; [2]", "result": 7.741576, "unit": "L/kg"}, {"measurement": "t1/2", "setting": "[1]; PO, oral gavage 20 mg/kg, n=4, rats, plasma, 20 mg/kg", "result": "174 min and 175.5 min"}, {"measurement": "half-life", "setting": "[1]; male, SD, rat, plasma, iv, 5 mg/kg, tail vein injection 5 mg/kg, n=1, rats", "result": "~48", "unit": "min"}, {"measurement": "half-life", "setting": "[1]; male, SD, rat, plasma, po, 20 mg/kg, oral gavage 20 mg/kg, n=4, rats", "result": "~174", "unit": "min"}, {"measurement": "AUC(0-inf)", "setting": "[1]; [3]", "result": 727, "unit": "ng·h/mL"}, {"measurement": "Cmax", "setting": "[1]; [3]", "result": 1430, "unit": "ng/mL"}, {"measurement": "Tmax", "setting": "[1]; [3]", "result": 4.98, "unit": "min"}, {"measurement": "AUC(0-t)", "setting": "[1]; [3]", "result": 722, "unit": "ng·h/mL"}, {"measurement": "bioavailability", "setting": "[1]; male, SD, rat, plasma, PO 20 mg/kg vs IV 5 mg/kg, rats", "result": 17.6, "unit": "%"}, {"measurement": "AUC(0-inf)", "setting": "[1]; [4]", "result": 555, "unit": "ng·h/mL"}, {"measurement": "CL/F", "setting": "[1]; [4]", "result": 632, "unit": "mL/min/kg"}, {"measurement": "Cmax", "setting": "[1]; [4]", "result": 183, "unit": "ng/mL"}, {"measurement": "Tmax", "setting": "[1]; [4]", "result": 22.5, "unit": "min"}, {"measurement": "AUC(0-t)", "setting": "[1]; [4]", "result": 508, "unit": "ng·h/mL"}, {"measurement": "Vd/F", "setting": "[1]; male, SD, rat, plasma, PO, oral gavage 20 mg/kg, n=4, rats, read-out: Vz/F", "result": 166, "unit": "L/kg"}, {"measurement": "IC50", "setting": "HDAC3", "result": "> 20", "unit": "µM"}, {"measurement": "IC50", "setting": "HDAC4", "result": "> 20", "unit": "µM"}, {"measurement": "IC50", "setting": "HDAC1", "result": "> 20", "unit": "µM"}, {"measurement": "expression levels of HSP70", "setting": "HSP90, HSP60, HSP70", "result": "slightly up-regulated"}, {"measurement": "expression levels of HSP90 and HSP60", "setting": "HSP90, HSP60, HSP70", "result": "did not influence"}]}
